# Data published in ChEMBL document CHEMBL1135815, “Design, synthesis, and pharmacological evaluation of new farnesyl protein transferase inhibitors” (J Med Chem, 2002).
# Experiments:
# [1] = molecular target: Protein farnesyltransferase (Homo sapiens, UniProt P49354+P49356); assay: Inhibition of Farnesyltransferase catalyzed transfer of the FPP moiety to dansyl-GCVLS; assay type: protein-complex assay
# [2] = molecular target: Geranylgeranyl transferase type I (Homo sapiens, UniProt P49354+P53609); assay: Inhibition of Geranylgeranyl transferase type I (GGPT I) catalyzed transfer of GGPP to dansyl-GCVLL; assay type: protein-complex assay
IC50 [1] [µM],IC50 [2] [µM],Compound
> 100,,COC(=O)[C@H](CCSC)N(C(=O)c1ccccc1)C1CCNCC1
0.034,5.1,CSCCC(NC(=O)[C@H](Cc1ccccc1)NCC[C@@H](C)CNC[C@H](N)CSC)C(=O)O (stereo partly specified)
> 100,,COC(=O)[C@H](CCSC)N(C(=O)c1ccccc1)C1CCN(C(=O)[C@H]2CSCN2)CC1
2.14,> 100,COC(=O)[C@H](CCSC)N(C(=O)c1ccccc1)C1CCN(C(=O)[C@@H]2CSCN2)CC1
52.5,> 100,COC(=O)[C@H](CCSC)N(C(=O)c1ccccc1)C1CCN(C(=O)c2cscn2)CC1
41.7,> 100,COC(=O)[C@H](CCSC)N(C(=O)c1ccccc1)C1CCN(Cc2cscn2)CC1
0.02,> 100,COC(=O)[C@H](CCSC)N(C(=O)c1ccccc1)C1CCN(C(=O)C(N)CS)CC1 (stereo partly specified)
16.2,> 100,COC(=O)[C@H](CCSC)N(C(=O)c1ccccc1)C1CCN(Cc2c[nH]cn2)CC1
0.072,> 100,CSCC[C@H](NC(=O)c1ccc(NC(=O)[C@@H](N)CS)cc1)C(=O)O
